Assay results published in PMC8271877, “Identifying a Deferiprone–Resveratrol Hybrid as an Effective Lipophilic Anti-Plasmodial Agent” (Molecules, 2021).
Entries after “also recorded” stand apart in the source; their conditions may differ. Where two headings read alike, the source gives them in different places. Each block holds one molecule with its values, some of them ahead of it.

Key:
[1] = test system: P. falciparum; design: method as in PMID 26424148; conditions: read-out: IC50, inhibition of P. falciparum growth; cited from earlier work
[2] = design: method as in PMID 26424148; conditions: cited from earlier work
[3] = test system: P. falciparum; conditions: read-out: IC50 against P. falciparum; cited from earlier work
[4] = cited from earlier work
[5] = test system: P. falciparum (3D7 strain); assay: Drug sensitivity test (SYBR Green I), P. falciparum 3D7 strain; type: cell-based, Plasmodium falciparum; conditions: for IC50: read-out: Absolute IC50 Value, P. falciparum (3D7 Strain)
[6] = test system: labile iron pools in P. falciparum-infected red blood cells (PRBCs); assay: Labile iron pool (LIP) in P. falciparum-infected RBC, calcein quenching, flow cytometry; type: cell-based, Plasmodium falciparum; conditions: for effect on MFI values of PRBCs (LIP content): 25–200 µM, calcein fluorescence, higher MFI = less LIP
[7] = test system: normal cell line; conditions: read-out: IC50, normal cell line; cited from earlier work
[8] = design: method as in PMID 28061347; conditions: metal-chelating activity; cited from earlier work
[9] = test system: P. falciparum (K1 strain); assay: Drug sensitivity test (SYBR Green I), P. falciparum K1 strain; type: cell-based, Plasmodium falciparum
[10] = design: method as in PMID 32208614; conditions: cited from earlier work
[11] = Partition coefficient (Po/w), 1-octanol/water system; conditions: mean ± SD of three repetitions
[12] = test system: P. falciparum; design: method as in PMID 23266185; conditions: read-out: IC50 against P. falciparum; cited from earlier work
[13] = test system: Aβ1–42; design: method as in PMID 28061347; conditions: read-out: IC50, Cu2+/Fe3+-induced Aβ1–42 aggregation; cited from earlier work
[14] = test system: healthy human PBMCs; assay: MTT toxicity study in peripheral blood mononuclear cells
[15] = design: method as in PMID 28061347; conditions: read-out: IC50, antioxidant activity; cited from earlier work
[16] = Plasmodium falciparum, 3D7, 48 h
[17] = Plasmodium falciparum, K1, 48 h, read-out: Absolute IC50 Value, P. falciparum (K1 Strain), PYR-resistant K1, 48 h, monotherapy

Structure (SMILES): CC(=O)NCCCCCCn1ccc(=O)c(O)c1C [CM1, 1-(N-acetyl-6-aminohexyl)-3-hydroxy-2-methylpyridin-4-one]
IC50 [1]: 35.1 µM
Kpart [2]: 0.53

Structure (SMILES): COCCOCCOCCOc1cccc(C2=N[C@@](C)(C(=O)O)CS2)c1O [DADFT-PE, (S)3″-(HO)-desazadesferrithiocin-polyether]
IC50 [3]: 6 µM

Structure (SMILES): CC(=O)N(O)CCCCCNC(=O)CCC(=O)N(O)CCCCCNC(=O)CCC(=O)N(O)CCCCCN [DFO, desferrioxamine]
IC50 [3]: 30 µM

Structure (SMILES): Cc1c(O)c(=O)ccn1C [DFP, 1,2-dimethyl-3-hydroxypyridin-4-one]
log Po/w values for free ligands [4]: −0.77
log Po/w values for [Fe-L3] ([4]; iron complex): −2.6
IC50 [5, 16]: 47.7 µM
effect on MFI values of PRBCs (LIP content) [6]: significantly increased the MFI values
IC50 [7]: > 200 µM
pFe(III) [8]: 20.6
IC50 [9, 17]: 42 µM
IC50 [3]: 15 µM
iron-mobilizing efficacy in rats [10]: 11.8%
IC50 [1]: 58.2 µM
Po/w Values (partition coefficient) [11]: 0.18 ± 0.06
IC50 [12]: 67 µM
Kpart [2]: 0.17

Structure (SMILES): Cn1cc(O)c(=O)cc1C=Cc1cc(O)cc(O)c1 [DFP-RVT, 2-(3,5-dihydroxystyryl)-5-hydroxy-1-methylpyridin-4(1H)-one]
anti-malarial activity of combined treatment with PYR, 3D7 strain ([5]; DFP-RVT 5–15 µM with 25 nM PYR, 48 h): significant level of enhancement of anti-malarial activity; also recorded: additive effects
IC50 [5, 16]: 16.8 µM
effect on MFI values of PRBCs (LIP content) [6]: significantly increased the MFI values
reduction in LIP levels in PRBCs compared with DFP (∆MFI) ([6]; equal concentrations): more effective than conventional DFP at equal concentrations
IC50 [13]: 10.7 µM
pFe(III) [8]: 19.6
toxicity to PBMCs ([14]; 200 µM, 48 h of incubation): slightly toxic
toxicity to PBMCs ([14]; 25–200 µM, 24 h of incubation): not found to be toxic
toxicity to PBMCs (words, summary) ([14]; concentrations up to 200 µM): nontoxic to blood mononuclear cells
anti-malarial activity of combined treatment with PYR, K1 strain ([9]; DFP-RVT (0–15 µM) with 75 µM PYR, 48 h): significantly enhanced the anti-malarial activity; also recorded: additive effects
IC50 [9, 17]: 13.4 µM
IC50 ([9]; read-out: Absolute IC50 Value, P. falciparum (K1 Strain), PYR-resistant K1, 48 h, monotherapy): 14 µM
IC50 [15]: 1730 nM

IC50 ([5]; PYR-sensitive wild-type 3D7, 48 h, monotherapy): 0.05 µM
IC50 ([5]; Plasmodium falciparum, 3D7, 48 h, PYR-sensitive wild-type 3D7, 48 h, monotherapy): 0.046 µM
IC50 ([9]; PYR-resistant K1, 48 h, monotherapy, read-out: Absolute IC50 Value, P. falciparum (K1 Strain)): 106 µM
IC50 ([9]; Plasmodium falciparum, K1, 48 h, PYR-resistant K1, 48 h, monotherapy, read-out: Absolute IC50 Value, P. falciparum (K1 Strain)): 106 µM
Structure (SMILES): CCc1nc(N)nc(N)c1-c1ccc(Cl)cc1 [PYR, pyrimethamine]

Structure (SMILES): Oc1ccc(/C=C/c2cc(O)cc(O)c2)cc1 [RVT, 3,5,4′-trihydroxy-trans-stilbene]
IC50 [13]: 11.9 µM

Structure (SMILES): Cc1c(C)c2c(c(C)c1O)CCC(C)(C(=O)O)O2 (stereo not shown) [Trolox]
IC50 [15]: 3890 nM

Structure (SMILES): COc1cc(/C=C/C(=O)CC(=O)/C=C/c2ccc(O)c(OC)c2)ccc1O [curcumin]
IC50 [13]: 18.7 µM
